Results reported in ChEMBL document CHEMBL4028801, “A multifactorial approach to hepatobiliary transporter assessment enables improved therapeutic compound development” (Toxicol Sci, 2013).
Counter-ions that a name gives are not always drawn.

Experiments:
[1] = target: T1, ATP-binding cassette sub-family C member 4 (Homo sapiens, UniProt O15439); test: Inhibition of human MRP4 overexpressed in Sf9 cell membrane vesicles assessed as uptake of [3H]-estradiol-17beta-D-glucuronide in presence of ATP and GSH measured after 20 mins by membrane vesicle transport assay; assay type: ADME, cell-based
T1 sequence (O15439 whole entry): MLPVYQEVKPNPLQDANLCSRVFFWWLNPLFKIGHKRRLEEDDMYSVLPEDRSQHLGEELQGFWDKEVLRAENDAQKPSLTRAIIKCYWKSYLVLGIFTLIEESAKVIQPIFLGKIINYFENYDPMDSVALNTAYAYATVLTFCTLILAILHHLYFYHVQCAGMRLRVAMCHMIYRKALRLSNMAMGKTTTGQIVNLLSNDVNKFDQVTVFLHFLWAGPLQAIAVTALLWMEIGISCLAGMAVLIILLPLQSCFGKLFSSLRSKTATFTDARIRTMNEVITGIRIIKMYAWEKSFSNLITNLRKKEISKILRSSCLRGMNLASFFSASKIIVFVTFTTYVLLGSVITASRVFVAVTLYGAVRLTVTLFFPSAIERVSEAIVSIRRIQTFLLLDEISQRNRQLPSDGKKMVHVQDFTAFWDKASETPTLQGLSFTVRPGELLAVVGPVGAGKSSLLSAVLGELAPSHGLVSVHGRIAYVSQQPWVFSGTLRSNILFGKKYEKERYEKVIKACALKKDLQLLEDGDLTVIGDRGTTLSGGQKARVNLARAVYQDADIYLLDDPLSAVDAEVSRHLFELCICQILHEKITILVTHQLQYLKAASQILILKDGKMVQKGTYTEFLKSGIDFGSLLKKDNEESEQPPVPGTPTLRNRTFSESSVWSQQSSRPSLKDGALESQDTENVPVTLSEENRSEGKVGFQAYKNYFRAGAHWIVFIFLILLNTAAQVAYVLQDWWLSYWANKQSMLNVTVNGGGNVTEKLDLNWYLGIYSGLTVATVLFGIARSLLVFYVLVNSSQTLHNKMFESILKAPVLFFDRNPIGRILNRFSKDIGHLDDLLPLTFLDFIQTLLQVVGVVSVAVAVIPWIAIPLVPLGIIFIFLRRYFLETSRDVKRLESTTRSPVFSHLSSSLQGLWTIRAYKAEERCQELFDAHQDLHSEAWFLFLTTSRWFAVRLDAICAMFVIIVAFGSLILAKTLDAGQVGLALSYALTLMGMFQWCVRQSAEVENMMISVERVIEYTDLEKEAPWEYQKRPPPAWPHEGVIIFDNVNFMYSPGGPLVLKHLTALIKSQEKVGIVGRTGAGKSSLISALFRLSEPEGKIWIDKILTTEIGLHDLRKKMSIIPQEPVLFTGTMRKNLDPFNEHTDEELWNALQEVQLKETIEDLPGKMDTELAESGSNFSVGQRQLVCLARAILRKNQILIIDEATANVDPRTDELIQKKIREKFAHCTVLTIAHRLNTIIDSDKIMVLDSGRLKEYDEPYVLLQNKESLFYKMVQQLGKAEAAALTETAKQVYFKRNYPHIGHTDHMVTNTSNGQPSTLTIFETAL

[2] = target: ATP-binding cassette sub-family C member 2 (Homo sapiens, UniProt Q92887); test: Inhibition of human MRP2 overexpressed in Sf9 cell membrane vesicles assessed as uptake of [3H]-estradiol-17beta-D-glucuronide in presence of ATP and GSH measured after 20 mins by membrane vesicle transport assay
Chain of ATP-binding cassette sub-family C member 2 (Q92887 whole entry): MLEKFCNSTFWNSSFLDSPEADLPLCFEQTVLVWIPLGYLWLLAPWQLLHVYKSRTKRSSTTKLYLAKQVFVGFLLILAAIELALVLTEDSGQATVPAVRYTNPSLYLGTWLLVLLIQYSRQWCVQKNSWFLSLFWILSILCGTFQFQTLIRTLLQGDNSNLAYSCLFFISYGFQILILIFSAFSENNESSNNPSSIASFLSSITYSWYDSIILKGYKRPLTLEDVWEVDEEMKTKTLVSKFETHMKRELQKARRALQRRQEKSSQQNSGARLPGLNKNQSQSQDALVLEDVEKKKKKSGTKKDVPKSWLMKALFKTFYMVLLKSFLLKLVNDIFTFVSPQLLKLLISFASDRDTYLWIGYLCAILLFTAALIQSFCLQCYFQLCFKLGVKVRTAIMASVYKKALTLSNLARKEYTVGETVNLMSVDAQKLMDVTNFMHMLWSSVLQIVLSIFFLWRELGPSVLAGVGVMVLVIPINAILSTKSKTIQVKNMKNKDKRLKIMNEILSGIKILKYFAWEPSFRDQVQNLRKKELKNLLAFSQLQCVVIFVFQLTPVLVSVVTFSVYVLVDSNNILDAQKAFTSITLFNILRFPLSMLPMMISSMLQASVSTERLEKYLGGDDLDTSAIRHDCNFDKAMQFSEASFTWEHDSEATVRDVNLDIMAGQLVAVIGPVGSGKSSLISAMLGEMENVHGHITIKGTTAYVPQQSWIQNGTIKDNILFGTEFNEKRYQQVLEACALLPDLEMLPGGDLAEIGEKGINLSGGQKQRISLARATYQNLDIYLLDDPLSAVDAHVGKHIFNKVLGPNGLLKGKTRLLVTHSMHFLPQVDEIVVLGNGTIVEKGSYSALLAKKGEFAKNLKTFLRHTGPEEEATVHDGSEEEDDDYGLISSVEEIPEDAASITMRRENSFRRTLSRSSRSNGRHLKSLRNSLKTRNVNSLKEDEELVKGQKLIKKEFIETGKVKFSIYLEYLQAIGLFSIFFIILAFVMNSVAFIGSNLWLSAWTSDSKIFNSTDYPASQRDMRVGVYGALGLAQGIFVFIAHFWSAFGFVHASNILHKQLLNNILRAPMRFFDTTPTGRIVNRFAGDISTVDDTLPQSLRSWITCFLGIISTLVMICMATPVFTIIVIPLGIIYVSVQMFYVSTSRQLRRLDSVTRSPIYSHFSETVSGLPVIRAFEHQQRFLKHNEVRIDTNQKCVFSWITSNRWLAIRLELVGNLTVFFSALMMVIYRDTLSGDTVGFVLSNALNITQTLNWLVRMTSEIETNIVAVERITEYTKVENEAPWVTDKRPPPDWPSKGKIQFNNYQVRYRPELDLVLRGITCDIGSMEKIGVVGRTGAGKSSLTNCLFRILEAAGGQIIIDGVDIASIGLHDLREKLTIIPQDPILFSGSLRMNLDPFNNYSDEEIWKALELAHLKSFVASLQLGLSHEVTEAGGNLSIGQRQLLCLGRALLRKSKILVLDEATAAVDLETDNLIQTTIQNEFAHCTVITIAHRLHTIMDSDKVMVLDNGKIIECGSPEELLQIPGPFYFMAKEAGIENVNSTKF

[3] = target: ATP-binding cassette sub-family C member 3 (Homo sapiens, UniProt O15438); test: Inhibition of human MRP3 overexpressed in Sf9 insect cell membrane vesicles assessed as uptake of [3H]-estradiol-17beta-D-glucuronide in presence of ATP and GSH measured after 10 mins by membrane vesicle transport assay; assay type: ADME, cell-based
Chain of ATP-binding cassette sub-family C member 3 (O15438 whole entry): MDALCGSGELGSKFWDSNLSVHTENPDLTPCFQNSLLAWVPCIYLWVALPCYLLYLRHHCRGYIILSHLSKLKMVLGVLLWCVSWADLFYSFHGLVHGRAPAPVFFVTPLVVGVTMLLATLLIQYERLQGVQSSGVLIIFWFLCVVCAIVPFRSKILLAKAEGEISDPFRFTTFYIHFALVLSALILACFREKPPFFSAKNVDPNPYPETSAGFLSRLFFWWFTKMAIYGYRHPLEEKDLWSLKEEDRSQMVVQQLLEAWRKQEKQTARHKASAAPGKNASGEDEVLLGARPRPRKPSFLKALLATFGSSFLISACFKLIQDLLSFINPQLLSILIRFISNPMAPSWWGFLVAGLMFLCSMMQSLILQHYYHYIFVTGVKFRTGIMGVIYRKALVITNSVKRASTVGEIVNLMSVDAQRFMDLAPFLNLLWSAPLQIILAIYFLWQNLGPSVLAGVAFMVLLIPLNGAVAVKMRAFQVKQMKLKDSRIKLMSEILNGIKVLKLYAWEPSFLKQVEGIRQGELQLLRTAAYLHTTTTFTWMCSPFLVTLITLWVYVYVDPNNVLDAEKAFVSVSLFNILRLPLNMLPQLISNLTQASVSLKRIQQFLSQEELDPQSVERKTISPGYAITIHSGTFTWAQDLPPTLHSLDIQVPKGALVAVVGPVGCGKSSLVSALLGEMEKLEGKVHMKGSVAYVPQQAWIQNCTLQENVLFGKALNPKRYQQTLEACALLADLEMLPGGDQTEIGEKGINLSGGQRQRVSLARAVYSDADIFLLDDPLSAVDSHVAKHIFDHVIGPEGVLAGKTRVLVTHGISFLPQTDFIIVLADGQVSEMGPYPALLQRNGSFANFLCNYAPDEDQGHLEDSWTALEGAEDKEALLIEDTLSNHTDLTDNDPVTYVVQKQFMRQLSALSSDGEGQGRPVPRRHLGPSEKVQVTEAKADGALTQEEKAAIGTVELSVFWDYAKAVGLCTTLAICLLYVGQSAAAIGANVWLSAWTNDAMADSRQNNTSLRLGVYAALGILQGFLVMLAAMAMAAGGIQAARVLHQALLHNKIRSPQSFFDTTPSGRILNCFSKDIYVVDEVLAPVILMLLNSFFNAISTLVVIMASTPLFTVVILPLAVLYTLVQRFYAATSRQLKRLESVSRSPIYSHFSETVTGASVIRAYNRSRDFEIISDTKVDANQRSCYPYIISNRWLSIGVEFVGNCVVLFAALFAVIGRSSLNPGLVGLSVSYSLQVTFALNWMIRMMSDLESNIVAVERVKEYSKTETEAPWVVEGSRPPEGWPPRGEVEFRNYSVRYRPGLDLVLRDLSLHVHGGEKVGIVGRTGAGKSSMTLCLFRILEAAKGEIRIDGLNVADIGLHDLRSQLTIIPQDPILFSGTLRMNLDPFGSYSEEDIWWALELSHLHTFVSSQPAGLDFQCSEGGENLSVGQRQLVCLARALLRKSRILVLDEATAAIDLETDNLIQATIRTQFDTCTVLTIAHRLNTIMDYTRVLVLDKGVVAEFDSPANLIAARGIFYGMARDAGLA

Structure (SMILES)	IC50 [1] [µM]	IC50 [2] [µM]	IC50 [3] [µM]
CC[C@H]1OC(=O)[C@H](C)[C@@H](O[C@H]2C[C@@](C)(OC)[C@@H](O)[C@H](C)O2)[C@H](C)[C@@H](O[C@@H]2O[C@H](C)C[C@H](N(C)C)[C@H]2O)[C@](C)(O)C[C@@H](C)C(=O)[C@H](C)[C@@H](O)[C@]1(C)O	68.2	> 133	> 133
NS(=O)(=O)c1cc(C(=O)O)c(NCc2ccco2)cc1Cl [FUROSEMIDE]	> 133	> 133	> 133
CN(C)CCCN1c2ccccc2CCc2ccc(Cl)cc21 [CLOMIPRAMINE]	> 133	> 133	> 133
C[C@]12CC[C@H]3[C@@H](CCC4=CC(=O)CC[C@@]43C)[C@@H]1CC[C@@H]2O [TESTOSTERONE]	> 133	> 133	> 133
Cc1ccc(Nc2c(F)cccc2Cl)c(CC(=O)O)c1 [LUMIRACOXIB]	> 133	> 133	> 133
NC(=O)NO [HYDROXYUREA]	> 133	> 133	> 133
COC(=O)Nc1nc2ccc(C(=O)c3ccccc3)cc2[nH]1 [MEBENDAZOLE]	15.5	> 133	> 133
COc1ccc(CCN(C)CCCC(C#N)(c2ccc(OC)c(OC)c2)C(C)C)cc1OC (stereo not given)		> 133	> 133
CCn1cc(C(=O)O)c(=O)c2cc(F)c(N3CCNCC3)cc21 [NORFLOXACIN]	> 133	> 133	> 133
O=C(O)c1cn(C2CC2)c2cc(N3CCNCC3)c(F)cc2c1=O [CIPROFLOXACIN]	> 133	> 133	> 133
COCCc1ccc(OCC(O)CNC(C)C)cc1 (stereo not given) [METOPROLOL]	> 133	> 133	> 133
Clc1ccccc1CN1CCc2sccc2C1 [TICLOPIDINE HYDROCHLORIDE]	> 133	> 133	> 133
O=C(O)c1cc(/N=N/c2ccc(S(=O)(=O)Nc3ccccn3)cc2)ccc1O [SULFASALAZINE]	1.5		14.6
Nc1ccn([C@@H]2CS[C@H](CO)O2)c(=O)n1 [LAMIVUDINE]	> 133	> 133	> 133
C[C@@H](O)[C@H]1C(=O)N2C(C(=O)O)=C(S[C@@H]3CN[C@H](CNS(N)(=O)=O)C3)[C@H](C)[C@H]12 [DORIPENEM]	> 133	> 133	> 133
CC(=O)Nc1nnc(S(N)(=O)=O)s1 [ACETAZOLAMIDE]	> 133	> 133	> 133
COCCOC(=O)C1=C(C)NC(C)=C(C(=O)OC(C)C)C1c1cccc([N+](=O)[O-])c1 (stereo not given) [NIMODIPINE]	> 133	> 133	> 133
CN1CCN2c3ncccc3Cc3ccccc3C2C1 (stereo not given) [MIRTAZAPINE]	> 133	> 133	> 133
CC(C)[C@@H]1NC(=O)[C@H](C)OC(=O)[C@@H](C(C)C)NC(=O)[C@@H](C(C)C)OC(=O)[C@H](C(C)C)NC(=O)[C@H](C)OC(=O)[C@@H](C(C)C)NC(=O)[C@@H](C(C)C)OC(=O)[C@H](C(C)C)NC(=O)[C@H](C)OC(=O)[C@@H](C(C)C)NC(=O)[C@@H](C(C)C)OC1=O [VALINOMYCIN]	> 133	> 133	> 133
CCN(CC)CCNC(=O)c1c(C)[nH]c(/C=C2\C(=O)Nc3ccc(F)cc32)c1C	> 133	> 133	> 133
COc1ccc([C@@H]2Sc3ccccc3N(CCN(C)C)C(=O)[C@@H]2OC(C)=O)cc1 [DILTIAZEM]	> 133	> 133	> 133
Nc1ccc(S(=O)(=O)c2ccc(N)cc2)cc1 [DAPSONE]	> 133	> 133	> 133
Cc1ccc(O)c([C@H](CCN(C(C)C)C(C)C)c2ccccc2)c1 [TOLTERODINE TARTRATE]	> 133	> 133	> 133
Nc1cc(N2CCCCC2)nc(N)[n+]1[O-] [MINOXIDIL]	> 133	> 133	> 133
